In patent US4826872A, “Pharmaceutical composition for treatment of cataract” (Takeda Chemical Industries, Ltd., priority 1986, dated 1989):
Like-named read-outs stand apart in the source and are kept apart here.

Experiments:
[1] = system: rabbit lens epithelial cells; assay: Test System II: MDA formed by activated oxygen species of the xanthine-xanthine oxidase system in culture of lens epithelial cells; format: cell-based; details: for Amount of MDA in culture medium: 24 hours, normal 0.005, control 0.134
Source text: (§1) The inhibitory effect of 2-0-octadecylascorbic acid [compound (I-A)]on lens epithelial cells was studied.
(§2) The lens epithelial cells were obtained from a male white rabbit weighing about 2 kg. Thus, after the […] was sacrificed, the eyeballs were immediately enucleated and subjected to the following aseptic procedures. The eyeballs were washed with Hank's balanced salt solution (pH 7.2), disinfected by 30-second immersion in 80% alcohol and re-washed with the same balanced salt solution. Then, using a small knife, the sclera was cut open from the posterior part of the bulb and the lens was taken out. The retina, vitreous body and the zonule of Zinn were removed. Then, the capsule was punctured and separated from the lens by means of forceps. (The epithelial cells came off with the capsule). The separated capsule was incubated in 0.01% EDTA-0.125% trypsin at 37° C. for 20 minutes After addition of the culture medium mentioned below, the mixture was centrifuged at 1,000 rpm for 2 minutes. By repeating this procedure, the epithelial cells were isolated. These cells were subjected to a few serial passages and used in the experiment. The culture medium was Eagle's medium (MEM) supplemented with 15% bovine fetal serum.
(§3) The following two oxidation systems were used in the experiment: the system using the cytotoxic effect of lipid peroxidation products produced by auto-oxidation of docosahexaenoic acid as an indicator and the system using the cytotoxic effect of activated oxygen species produced by the xanthine-xanthine oxidase system as an indicator. Thus, the confluent cells in dishes were incubated in the following media for 24 hours and the lipid peroxides in the cultures were determined.
(§4) (1) Normal: Cultured in MEM only
(§5) (2) Control: Cultured in MEM supplemented
with 1 mM of xanthine and 0.01
U/ml of xanthine oxidase
(3) Drug: Cultured in MEM supplemented with
1 mM of xanthine and 0.01 U/ml of
xanthine oxidase plus the drug.
(§6) The thiobarbituric acid method of Yagi [Anal. Biochem., 95, 351-358 (1979)]was used for Test System I and the method of Nakashima [Chem. Pharm. Bull., 33. 5380-5384 (1985)]and Ohsawa [Anal. Sci., 1, 473-476 (1985)]using 1,3-diphenyl-2-thiobarbituric acid was employed with some modification for Test System II.

[2] = system: rabbit lens epithelial cells; assay: Test System I: MDA formed by auto-oxidation of docosahexaenoic acid in culture of lens epithelial cells; format: cell-based; details: for Amount of MDA in culture medium: 24 hours, normal 1.5, control 29.2
Source text: as §1, §2, §3, §4, §5
with 250 μg/ml of docosahexaenoic
(3) Drug: Cultured in MEM supplemented
as §6

[3] = system: cataract; details: cited from earlier work
[4] = system: lens (cataract after streptozocin administration); assay: Slit-lamp observation of progress of cataract in streptozocin-treated rats (Experiment 1); format: in vivo, male S.D. strain rats; details: vs control group, lens observed 7-35 days after streptozocin
Protocol: Test procedure: 4-week-old male S.D. strain rats were purchased from Shizuoka Prefecture Animals Farmers' Cooperative, grouped by 10 animals after 5 days of preliminary feeding, and subjected to the test. […] To the vitamin E group, tocopherol acetate (50 mg/ml) was given orally in the same way at the dose of […] (400 mg/kg/day). To the control group, tap water was orally given at 200 μl/100 g.
0 No opacity is observed in the lens.
I The surface of the lens is slightly opaque or small vacuoles appear on the equator.
II Vacuoles increase in number and distribute over the cortex while fusing with each other.
III Vacuoles distributed over the most part of the cortex begin to disappear.
IV Most vacuoles have disappeared, and the whole cortex becomes opaque and translucent.
V The nucleoplasm becomes opaque.
VI The whole lens becomes white turbid.

[5] = system: cataract; details: instillation; many specialists doubtful; cited from earlier work
[6] = cited from Mechanism of Cataract Formation in the Human Lens (1981)

With `Cc1c(C)c2c(c(C)c1O)CCC(C)(CCCC(C)CCCC(C)CCCC(C)C)O2` (racemic) [DL-α-Tocopherol, DL-α-tocopherol, reference compound] the “Amount of MDA in culture medium” value ([1]; drug 10 μg/ml) was 0.009 ± 0.011 n mole/ml, the “Amount of MDA in culture medium” value ([2]; drug 125 μg/ml) was 4.2 ± 0.1 n mole/ml and the “Concentration for the same effect relative to compound (I-A)” value ([2]; multiple of the concentration of compound (I-A)) was “about 50 times”.
For `COc1cccc2c1C(=O)c1c(O)c3c(c(O)c1C2=O)C[C@@](O)(C(=O)CO)C[C@@H]3O[C@H]1C[C@H](N)[C@H](O)[C@H](C)O1` [Adriamycin], the Induction of cataract [3, 6] is given as “induce cataract”.
With `CCCCCCCCCCCCCCCCCCOC1=C(O)C(C(O)CO)OC1=O` (stereo not shown) [Compound (I-A), 2-0-octadecylascorbic acid] the “Delay of progress of cataract (lens stage by slit lamp)” value ([4]; oral, 100 mg/kg/day first two days then 40 mg/kg/day, Kruskal-Wallis H-test) was “delayed significantly the progress of cataract”, the “Effect relative to DL-α-tocopherol (in words)” value [1] was “as effective as DL-α-tocopherol” and the “Inhibition of MDA (in words)” value [1] was “substantially complete inhibition of MDA”. The “Amount of MDA in culture medium” value ([1]; drug 2 μg/ml) was 0.024 ± 0.015 n mole/ml, the “Amount of MDA in culture medium” value ([1]; drug 10 μg/ml) was 0.016 ± 0.014 n mole/ml and the “Amount of MDA in culture medium” value ([1]; drug 50 μg/ml) was 0.001 ± 0.001 n mole/ml. For the same compound, the “Amount of MDA in culture medium” value ([2]; drug 2.5 μg/ml) was 6.5 ± 0.1 n mole/ml, the “Amount of MDA in culture medium” value ([2]; drug 5 μg/ml) was 5.8 ± 0.7 n mole/ml and the “Amount of MDA in culture medium” value ([2]; drug 10 μg/ml) was 10.3 ± 0.6 n mole/ml. For the same compound, the “Inhibition of formation of MDA (in words)” value ([2]; higher concentrations) was “inhibitory effect was attenuated” and the “Inhibition of formation of MDA (in words)” value ([2]; low concentrations (<5 μg/ml)) was “strongly inhibit the formation of MDA”.
For `Nc1nc[nH]n1` [amizole], the Induction of cataract ([3]; in vivo) is listed as “induce cataract”.
For `N[C@@H](CCC(=O)N[C@@H](CS)C(=O)NCC(=O)O)C(=O)O` [glutathione], the “Effectiveness for treatment of cataract” value [5] is given as “effective to some extent”.
In the case of `CN(N=O)C(=O)N[C@@H](C=O)[C@@H](O)[C@H](O)[C@H](O)CO` [streptozocin], the Induction of cataract [3, 6] is listed as “induce cataract”.
For `CC(=O)Oc1c(C)c(C)c2c(c1C)CCC(C)(CCC[C@H](C)CCC[C@H](C)CCCC(C)C)O2` (stereo partly shown) [vitamin E, tocopherol acetate, reference compound], the “Delay of progress of cataract (lens stage by slit lamp)” value ([4]; oral tocopherol acetate 400 mg/kg/day) was “did not delay the progress of cataract”.
